Species: Rattus norvegicus
Experiment: Open TG-GATES - Regimen: Single
Assay type: toxicity, organism-based, Sprague-Dawley
Design: regimen Single, gender Male, age 6 weeks
Conditions: in vivo, iv, 0 mg/kg, route intravenous injection, dose level Control; for APTT / Bas / Eos / Fbg / Hb / Ht / Lym / MCH / MCHC / MCV / Mono / Neu / PT / Plat / RBC / Ret / WBC: tissue Blood; for KIDNEY_L / KIDNEY_R / KIDNEY_TOTAL: tissue Kidney; for LIVER: tissue Liver; for A/G / ALP / ALT / AST / BUN / CRE / Ca / Cl / DBIL / GLC / IP / K / LDH / Na / PL / RALB / TBIL / TC / TG / TP / gamma-GTP: tissue Plasma

C[C@@H]1C[C@@H]([C@H](O)CC2CC(=O)NC(=O)C2)C(=O)[C@@H](C)C1 [CYCLOHEXIMIDE]
TERMINAL_BW (3 h): 221.4 g
APTT (3 h): 21.8 s
Bas (3 h): 0%
Eos (3 h): 1%
Fbg (3 h): 315.6 mg/dL
Hb (3 h): 13.1 g/dL
Ht (3 h): 39.2%
Lym (3 h): 75.6%
MCH (3 h): 21.3 pg
MCHC (3 h): 33.3%
MCV (3 h): 64 fL
Mono (3 h): 2.8%
Neu (3 h): 19.4%
PT (3 h): 16.2 s
Plat (3 h): 120.1 x10_4/uL
RBC (3 h): 612.2 x10_4/ul
Ret (3 h): 8.7%
WBC (3 h): 95.6 x10_2/uL
KIDNEY_L (3 h): 1 g
KIDNEY_R (3 h): 1 g
KIDNEY_TOTAL (3 h): 2 g
LIVER (3 h): 10.2 g
A/G (3 h): 1.2
ALP (3 h): 1480.4 IU/L
ALT (3 h): 44.4 IU/L
AST (3 h): 75.4 IU/L
BUN (3 h): 11.4 mg/dL
CRE (3 h): 0.1 mg/dL
Ca (3 h): 10.4 mg/dL
Cl (3 h): 106.8 meq/L
DBIL (3 h): 0.004 mg/dL
GLC (3 h): 187 mg/dL
IP (3 h): 9.1 mg/dL
K (3 h): 4 meq/L
LDH (3 h): 171.8 IU/L
Na (3 h): 141 meq/L
PL (3 h): 130.8 mg/dL
RALB (3 h): 2.9 g/dL
TBIL (3 h): 0.024 mg/dL
TC (3 h): 76.8 mg/dL
TG (3 h): 49.2 mg/dL
TP (3 h): 5.2 g/dL
gamma-GTP (3 h): 1.4 IU/L
TERMINAL_BW (6 h): 214.4 g
APTT (6 h): 22.6 s
Bas (6 h): 0%
Eos (6 h): 1%
Fbg (6 h): 314.4 mg/dL
Hb (6 h): 13.4 g/dL
Ht (6 h): 39.9%
Lym (6 h): 78.2%
MCH (6 h): 21.4 pg
MCHC (6 h): 33.6%
MCV (6 h): 64 fL
Mono (6 h): 2.8%
Neu (6 h): 17.2%
PT (6 h): 15.5 s
Plat (6 h): 113.8 x10_4/uL
RBC (6 h): 624 x10_4/ul
Ret (6 h): 8.7%
WBC (6 h): 88.7 x10_2/uL
KIDNEY_L (6 h): 1 g
KIDNEY_R (6 h): 1 g
KIDNEY_TOTAL (6 h): 2 g
LIVER (6 h): 9.4 g
A/G (6 h): 1.3
ALP (6 h): 1423 IU/L
ALT (6 h): 38.6 IU/L
AST (6 h): 71.6 IU/L
BUN (6 h): 10 mg/dL
CRE (6 h): 0.1 mg/dL
Ca (6 h): 10.5 mg/dL
Cl (6 h): 107.2 meq/L
DBIL (6 h): 0.002 mg/dL
GLC (6 h): 177 mg/dL
IP (6 h): 9.2 mg/dL
K (6 h): 4.2 meq/L
LDH (6 h): 198.8 IU/L
Na (6 h): 140.8 meq/L
PL (6 h): 139.6 mg/dL
RALB (6 h): 2.9 g/dL
TBIL (6 h): 0.036 mg/dL
TC (6 h): 78.6 mg/dL
TG (6 h): 52 mg/dL
TP (6 h): 5.2 g/dL
gamma-GTP (6 h): 1.2 IU/L
TERMINAL_BW (9 h): 215.8 g
APTT (9 h): 23.2 s
Bas (9 h): 0%
Eos (9 h): 0.6%
Fbg (9 h): 313.4 mg/dL
Hb (9 h): 12.9 g/dL
Ht (9 h): 38.5%
Lym (9 h): 78.8%
MCH (9 h): 20.8 pg
MCHC (9 h): 33.4%
MCV (9 h): 62.2 fL
Mono (9 h): 2%
Neu (9 h): 17.8%
PT (9 h): 15.8 s
Plat (9 h): 109.2 x10_4/uL
RBC (9 h): 620.6 x10_4/ul
Ret (9 h): 8.1%
WBC (9 h): 65.1 x10_2/uL
KIDNEY_L (9 h): 1 g
KIDNEY_R (9 h): 1 g
KIDNEY_TOTAL (9 h): 2 g
LIVER (9 h): 9 g
A/G (9 h): 1.3
ALP (9 h): 1329.2 IU/L
ALT (9 h): 37.4 IU/L
AST (9 h): 71 IU/L
BUN (9 h): 10 mg/dL
CRE (9 h): 0.1 mg/dL
Ca (9 h): 10.4 mg/dL
Cl (9 h): 106.4 meq/L
DBIL (9 h): 0.002 mg/dL
GLC (9 h): 176 mg/dL
IP (9 h): 9.7 mg/dL
K (9 h): 3.9 meq/L
LDH (9 h): 164.6 IU/L
Na (9 h): 142.4 meq/L
PL (9 h): 125.8 mg/dL
RALB (9 h): 3 g/dL
TBIL (9 h): 0.036 mg/dL
TC (9 h): 72.4 mg/dL
TG (9 h): 37.6 mg/dL
TP (9 h): 5.4 g/dL
gamma-GTP (9 h): 1.4 IU/L
TERMINAL_BW (24 h): 229.3 g
APTT (24 h): 22.3 s
Bas (24 h): 0%
Eos (24 h): 1%
Fbg (24 h): 319.8 mg/dL
Hb (24 h): 13.5 g/dL
Ht (24 h): 40.3%
Lym (24 h): 80.6%
MCH (24 h): 21 pg
MCHC (24 h): 33.5%
MCV (24 h): 62.5 fL
Mono (24 h): 2.8%
Neu (24 h): 14.6%
PT (24 h): 16 s
Plat (24 h): 119 x10_4/uL
RBC (24 h): 643.8 x10_4/ul
Ret (24 h): 8.7%
WBC (24 h): 90.5 x10_2/uL
KIDNEY_L (24 h): 1 g
KIDNEY_R (24 h): 1 g
KIDNEY_TOTAL (24 h): 2 g
LIVER (24 h): 11 g
A/G (24 h): 1.2
ALP (24 h): 1510.6 IU/L
ALT (24 h): 38.2 IU/L
AST (24 h): 65.8 IU/L
BUN (24 h): 16 mg/dL
CRE (24 h): 0.1 mg/dL
Ca (24 h): 10.8 mg/dL
Cl (24 h): 106 meq/L
DBIL (24 h): 0 mg/dL
GLC (24 h): 202.2 mg/dL
IP (24 h): 7.7 mg/dL
K (24 h): 4.2 meq/L
LDH (24 h): 179.2 IU/L
Na (24 h): 140.4 meq/L
PL (24 h): 142.8 mg/dL
RALB (24 h): 3 g/dL
